We go through five molecules from article PMC4926070, “Cembranoids from a Chinese Collection of the Soft Coral Lobophytum crassum” (Marine Drugs, 2016).

Like-named read-outs stand apart in the source and are kept apart here. A value given as a limit tells only on which side of the number the result lay.

The nature of series [1]: Cytotoxicity against mouse peritoneal macrophages. The class given is cell-based. The procedure:
(§1) A previously established protocol was followed except that 30 mM dexamethasone in DMSO was used as the positive control and each test compound (30 mM in DMSO) was diluted to 1–30 μM at r.t. before the experiment.

Series [2] relates to LPS-induced NO production in mouse peritoneal macrophages (PEMФ). Put plainly: Inhibition of lipopolysaccharide (LPS)-induced nitric oxide (NO) production. The class given is cell-based. Particulars: Peritoneal macrophage, compounds tested at 1–30 μM, read-out: IC50, inhibitory activity against LPS-induced NO production. The procedure:
All compounds were tested for their in vitro anti-inflammatory activities. Nitric oxide (NO) is an important signaling molecule that is involved in the regulation of diverse physiological and pathological processes. Overproduction of NO is associated with various human diseases, particularly acute and chronic inflammation, while the level of NO can reflect the degree of inflammation.
as §1

Setting [3] is: mouse peritoneal macrophages, read-out: CC50, cytotoxicity against mouse peritoneal macrophages.

`COC(=O)C1=CCCC2(C)OC2CCC(C(=O)OC)=CC=C(C(C)C)CC1` (stereo not shown) [Compound 1, Locrassumin A]: the CC50 in series [1] (setting [3]) was greater than 60 µM. The IC50 in series [2] was found to be 17 ± 3 µM.

On to `COC1(C)CC=CC(C)(O)CCC2=C(C)COC2C=C(C)CCC1O` (stereo not drawn) [Compound 7, (2R*,7R*,8S*,12S*,1Z,3E,10E)-8-methoxy-2,16-epoxycembra-1(15),3,10-trien-7,12-diol], for which, in series [1] (setting [3]), the CC50 was greater than 60 µM. The half-maximal inhibitory concentration (IC50) in series [2] was 13 ± 2 µM.

In series [1], `CC1=C2CC/C(C)=C/CC[C@@]3(C)O[C@@H]3CC/C(C)=C/[C@H]2OC1=O` [Compound 12, ent-sarcophine] showed a CC50 greater than 60 µM. The IC50 in series [2] is 24 ± 2 µM.

With `COC(=O)/C1=C\CC[C@@]2(C)O[C@@H]2CC/C(C(=O)OC)=C/C=C(/C(C)C)CC1` [Compound 13, sarcophytonolide O], the CC50 in series [1] (setting [3]) was greater than 60 µM. For the same molecule, in series [2], the IC50 was 8 ± 1 µM.

Take `COC(=O)/C1=C\C=C(\C(C)C)CCC2=CCC[C@](C)(OC2=O)C(=O)CC1` [Compound 17, ketoemblide]: in series [1] (setting [3]), the CC50 is greater than 60 µM. In series [2], the IC50 worked out at 12 ± 2 µM.

A word on the CC50: it is the concentration that lowers cell viability or growth by half. Broadly, the IC50 is the concentration needed to halve the response being measured.
